In PMC3170320, “Minimal Antizyme Peptide Fully Functioning in the Binding and Inhibition of Ornithine Decarboxylase and Antizyme Inhibitor” (PLoS ONE, 2011):
Entries after “also recorded” stand apart in the source; their conditions may differ.

Assays:
human ODC [1] = experiment: ODC enzyme activity inhibition by AZ peptides (without AZI); format: biochemical; details: for IC50 (AZ peptide)/IC50 (AZ_WT): ratio to AZ_WT; for IC50: ODC fixed at 20 µg/mL (0.19 µM), CO2-L3K coupled assay, 405 nm, 37°C, 30 mM Tris-HCl pH 7.8, 10 mM ornithine, 0.2 mM PLP, fit of inhibition curves; for ODC inhibition ability (in words): relative ODC activity, Figure 2
Experimental: Figure 2 Relative ODC enzyme activity in the presence of AZ peptides. The activity of ODC was inhibited by various concentrations of AZ peptides. ODC concentrations were fixed at 20 µg/mL (0.19 µM). The IC50 values of AZ peptides shown in Table 1 were derived from fitting these inhibition curves. The molar ratio refers to AZ peptide versus ODC monomer.
(§1) The ODC enzyme activity was determined using a CO2-L3K assay kit (DCL, Charlottetown, Canada) at 37°C. The continuous measurement of ODC enzyme activity was coupled to the carboxylation of PEP to oxaloacetate and the oxidation of oxaloacetate to malate, as previously reported. The reaction mixture contains 30 mM Tris-HCl at pH 7.8, 10 mM ornithine, 0.2 mM […] and 0.4 ml of the CO2-L3K assay kit solution, which contains 12.5 mM PEP, >0.4 U/ml phosphoenolpyruvate carboxylase (microbial), >4.1 U/ml malate dehydrogenase (mammalian) and 0.6 mM NADH analog in a final volume of 0.5 ml.
For the AZ inhibition experiment, the ODC enzyme (0.19 µM) and various amounts of AZ were added to the reaction mixture. The reaction was started after the ODC was added, and the absorbance decrease at 405 nm was continuously traced using a Perkin-Elmer Lamba-25 spectrophotometer. In this coupled reaction, the production of 1 mol of CO2 was concomitant with the oxidation of 1 mol of NADH analog. An extinction coefficient of 2410 M ^−1 was used for the NADH analog in the calculations.
(§2) To evaluate the inhibitory effect of AZ, the inhibited ODC enzyme activity versus [AZ] was fitted with the following equation to estimate the IC50 value: [drawing 1] where A and B are the minimum and maximum ODC enzyme activity, respectively, and the Hill slope gives the largest slope of the curve. The IC50 value represents the concentration of AZ required for 50% inhibition of ODC enzyme activity. All of the calculations were done using the SigmaPlot 10.0 software program (Jandel, San Rafael, CA).

[2] = target: human ODC (equilibrated with equimolar AZI); experiment: ODC enzyme activity inhibition by AZ peptides in the presence of AZI; format: biochemical; details: for IC50 (with AZI)/IC50 (without AZI): ratio with/without equimolar AZI
Experimental: AZ has a greater affinity for AZI than ODC, such that the formation of an AZ-AZI heterodimer will release the ODC monomer from an AZ-ODC complex and rapidly restore ODC enzyme activity. Here, we examined the inhibition of ODC enzyme activity by AZ peptides in the presence of AZI. The ODC enzyme was first pre-incubated with AZI, keeping the molar ratio of AZI monomer/ODC monomer at unity. […] Table 1 illustrates the IC50 values of the AZ peptides in the presence of AZI, showing that all of the IC50 values for the AZ peptides with AZI were larger than the values without AZI.
Figure 4 Relative ODC enzyme activities in the presence of AZ and AZI. ODC enzymes equilibrated with equimolar AZI were inhibited by various concentrations of AZ peptides. The concentrations of AZI and ODC were fixed at 18.9 µg/mL and 20 µg/mL, respectively (the ratio of AZI monomer versus ODC monomer was fixed at 1). Panels A–H show the inhibition curves of ODC for each AZ peptide in the absence (closed circles) and in the presence (open circles) of AZI.
as §1, §2

human ODC [3] = experiment: AZ peptide-ODC complex size distribution by analytical ultracentrifugation; format: binding; details: for K d,AZ-ODC fold higher than that of AZ_WT: ratio to AZ_WT
Experimental: AZ binds ODC, dissociates the ODC dimer and then inactivates the enzyme, [20]. […] In order to determine the differential binding affinity of these AZ peptides toward ODC, the size distributions of ODC with different concentrations of AZ peptides were analyzed. All sedimentation data were globally fitted with the AB hetero-association model in the SEDPHAT program to obtain the dissociation constant (K d) between ODC and AZ (Figure 3 and Table 2).
Figure 3 Continuous sedimentation coefficient distribution of human ODC in the presence of AZ peptide. The concentration of ODC was fixed at 0.3 mg/mL with concentrations of AZ ranging from 0.015 to 0.2 mg/mL (the molar ratio of AZ/ODC ranged from 0.12 to 2) in a buffer of 30 mM Tris-HCl (pH 7.4) and 25 mM NaCl at 20°C. The sedimentation velocity data were globally fitted with the SEDTHAT program to obtain K d values for the AZ peptide-ODC complex (Table 2).
A Beckman Optima XL-A analytical ultracentrifuge was used for sedimentation velocity experiments. Reference and sample sectors in the centerpiece were filled with buffer (400 µl) and sample protein (0.3 mg/mL, 380 µl), respectively, and then the cell was built up in an An-50 Ti rotor. Sedimentation velocity experiments were performed at 20°C with a rotor speed of 42,000 rpm. The data were traced by absorbance at 280 nm in continuous mode, with a time interval of 420 s and a step size of 0.002 cm. A total of 20–30 scans at different time points were collected and fitted to a continuous size distribution model using the program SEDFIT [54]–[55]. All size distributions were calculated at 0.1 to 20 S with a confidence level of p = 0.95 and a resolution N of 200.
In order to determine the dissociation constants (K d) of the AZ peptide-ODC and AZ peptide-AZI complexes, sedimentation velocity experiments were performed at different concentrations of AZ or AZ peptide with a constant concentration of human ODC or AZI. The K d values of the AZ peptide-ODC and AZ peptide-AZI complexes were calculated by a global fitting of all sedimentation data in the AB hetero-association model in the SEDPHAT program [56]–[57]. The partial specific volumes of the proteins, the solvent densities, and the viscosity were calculated by the SEDNTERP program.

| IC50 (AZ peptide)/IC50 (AZ_WT) (human ODC [1]) | IC50 (with AZI)/IC50 (without AZI) [2] | IC50 (human ODC [1]) [nM] | Inhibition of ODC with AZI relative to AZ_WT or to without AZI (in words) ([2]; equimolar AZI, Figure 4) | Substance | ODC inhibition ability (in words) (human ODC [1]) | K d,AZ-ODC fold higher than that of AZ_WT (human ODC [3]) [fold] | Size distribution of ODC in the presence of AZ (in words) (human ODC [3]; sedimentation velocity, 20°C, Figure 3) |
| --- | --- | --- | --- | --- | --- | --- | --- |
| 3.2 | 3.0 |  |  | AZ_87-124: truncated human AZ protein, residues 87-124 |  |  |  |
| 1.1 |  | 170 |  | AZ_87-228: truncated human AZ protein, residues 87-228 |  |  |  |
| 4.0 | 3.0 |  |  | AZ_95-124: truncated human AZ protein, residues 95-124 |  |  |  |
| 3.2 | 3.1 |  |  | AZ_95-135: truncated human AZ protein, residues 95-135 |  |  |  |
| 2.3 |  | 370 |  | AZ_95-169: truncated human AZ protein, lacking β-strand 6, residues 95-169 | displayed a noteworthy decrease in ODC inhibition ability |  |  |
| 1.2 | 3.4 |  |  | AZ_95-176: minimal AZ peptide fully functioning in the binding of ODC and AZI, residues 95-176 | retained most of the inhibition ability | 7.8 |  |
| 1.0 | 3.5 |  |  | AZ_95-228: truncated human AZ protein, residues 95-228 | also similar to that of AZ_WT | 2.1 |  |
| 5.0 |  | 820 |  | AZ_100-124: truncated human AZ protein, residues 100-124 | notably weaker inhibition ability than AZ_100-228 |  |  |
| 5.3 |  | 860 |  | AZ_100-135: truncated human AZ protein, residues 100-135 | notably weaker inhibition ability than AZ_100-228 |  |  |
| 2.6 | 3.3 |  |  | AZ_100-176: truncated human AZ protein, residues 100-176 | had a lower inhibition ability than that of AZ_100-228; also recorded: not as good as that of AZ_95-176 or AZ_100-228 |  |  |
| 1.3 | 3.0 |  |  | AZ_100-228: truncated human AZ protein, residues 100-228 |  | 7.5 |  |
| 2.3 |  | 370 |  | AZ_106-228: truncated human AZ protein, residues 106-228 | weaker inhibition ability than AZ_100-228 |  |  |
| 6.0 |  | 970 |  | AZ_114-228: truncated human AZ protein, residues 114-228 |  |  |  |
| 7.3 |  | 1190 |  | AZ_126-228: truncated human AZ protein, residues 126-228 |  |  |  |
|  |  |  |  | AZ_152-228: truncated human AZ protein, residues 152-228 | almost no ODC inhibition, even at high concentrations of AZ |  |  |
|  |  |  |  | AZ_177-228: truncated human AZ protein, residues 177-228 (HKNREDRAALLRTFSFLGFEIVRPGHPLVPKRPDACFMAYTFERESSGEEEE; UniProt P54368 177-228, looked up, fragment) | almost no ODC inhibition, even at high concentrations of AZ; also recorded: displays no inhibition of ODC activity |  |  |
| 1.0 | 3.1 |  | lower than in the absence of AZI | Antizyme [AZ_WT] |  |  | disrupted dimeric ODC to form AZ-ODC complexes |
